This note sets out measurements from US9708628B2, “Cationic lipid having improved intracellular kinetics” (NOF CORPORATION, priority 2011, dated 2017).

SMILES strings stand for the structures.

Common to all, as to format: cell-based
The subject of assay [1] is HT1080 cells. As to the kind of experiment: Influence of endosomal acidification inhibitor BafA1 (Kronos Dio). Conditions: 0.5 μM BafA1. The method, then:
MENDs of B-2-4 (Example 4), B-2 (Example 1) were prepared according to [Experimental Example 1] (1), (2), [Experimental Example […]]. For the preparation, PEG2000-DMG was used as PEG lipid, and MEND solutions corresponding to 0.55 mM of the lipid concentration were prepared.
HT1080 cells were plated on a 3.5 cm cell culture dish at 4×10^4 cells/2 mL/dish 24 hr before. The medium was changed to DMEM (FBS 10%+) containing 0.5 μM BafA1 (Bafilomycin A1) 30 min before transfection. 30 min later, various MENDs were added to the dish at 1.6 μg/2 mL/dish based on the pDNA amount. 3 hr after the transfection, the medium was changed to DMEM (FBS 10%+, Phenol red free) containing a final concentration 200 μM of D-luciferin potassium. According to the Kronos Dio package insert, the luminescence amount was measured for 2 min every 20 min and taken as the luciferase activity (RLU/2 min).

In assay [2] the test system is HT1080 cells. As to the kind of experiment: Inhibitory effect of GA (ginkgolic acid) on gene expression. Conditions: 0, 25, 50, 100 μM GA. The method, then:
MENDs of B-2-4 (Example 4), B-2 (Example 1) were prepared according to [Experimental Example 16], [Experimental Example 1] (1), (2). For the preparation, PEG2000-DMG was used as PEG lipid, and MEND solutions corresponding to 0.55 mM of the lipid concentration were prepared.
HT1080 cells were plated on a 3.5 cm cell culture dish at 4×10^4 cells/2 mL/dish 24 hr before, various MENDs were diluted with DMEM (FBS 10%+, Phenol red free) containing a final concentration of 200 μM of D-luciferin potassium and 0, 25, 50, 100 μM of GA (Calbiochem) to achieve 1.6 μg/2 mL/dish based on the pDNA amount and transfection was performed. According to the Kronos Dio package insert, the luminescence amount was measured for 2 min every 20 min and taken as the luciferase activity (RLU/2 min).

The subject of assay [3] is HT1080 cells. The experiment in a line: Decapsulation efficiency over time (3, 6, 9, 12 hr). Conditions: 3, 6, 9, 12 hr after transfection. The source says: For MEND preparation, Rhodamine-labeled pDNA prepared by the method of [Experimental Example 1] (4) was used. For preparation of MEND encapsulating the rhodamine-labeled pDNA, 50% of the pDNA solution described in [Experimental Example 1] (1) was replaced by the rhodamine-labeled pDNA. In addition, the lipid constituting the MEND was labeled with fluorescence by the method described in [Experimental Example 1] (3). MENDs having a composition of B-2-4 […]:DOPE:Chol=3:3:4, B-2 […]:SOPE:Chol=5:3:2 were prepared by the method described in [Experimental Example 1] (2). For the preparation, PEG2000-DMG was used as PEG lipid, and MEND solutions corresponding to 0.55 mM of the lipid concentration were prepared.
HT1080 cells were plated on a glass bottom dish at 5×10^4 cells/2 mL/dish 24 hr before. MEND was diluted with DMEM (FBS 10%+) to achieve pDNA 1.6 μg/2 mL and transfected into cells. 3, 6, 9, 12 hr later, the cells were washed twice with heparin solution (20 units/mL, 2 mL), Krebs buffer (1 mL) was added, and the images at 3, 6, 9, 12 hr after the transfection were obtained by a confocal laser scan microscope.
Rhodamine-labeled pDNA and lipid membrane of MEND were shown in pseudo colors of red and green, respectively. The decapsulation efficiency was calculated according to the following formula.

Assay [4] relates to HT1080 cells. The experiment in a line: Time-course evaluation of gene expression using Kronos Dio (luciferase, RLU/2 min). Conditions: pDNA 1.6 μg/2 mL/dish. The method, then:
MENDs of B-2-4 (Example 4), B-2 (Example 1) were prepared according to [Experimental Example 1] (1), (2), and [Experimental Example 18]. For the preparation, PEG2000-DMG was used as PEG lipid, and MEND solutions corresponding to 0.55 mM of the lipid concentration were prepared. For cationic MEND, lipids having a composition of DOTAP (Comparative Example 3):DOPE:Chol:=3:4:3 were used, and the cationic MEND was prepared according to the method described in [Experimental Example 1] (3).
HT1080 cells were plated on a 3.5 cm cell culture dish at 4×10^4 cells/2 mL/dish 24 hr before, various MENDs were diluted with DMEM (FES 10%+, Phenol red free) containing a final concentration of 200 μM of D-luciferin potassium to achieve 1.6 μg/2 mL/dish based on the pDNA amount and transfection was performed. According to the Kronos Dio package insert, the luminescence amount was measured for 2 min every 20 min and taken as the luciferase activity (RLU/2 min).

Assay [5] relates to HT1080 cells. The experiment in a line: Intracellular uptake amount of MEND (NBD-DOPE labeled lipid, FACS). Conditions: NBD-DOPE label, lipid 27.5 nmol/well, 1 hr, DMEM (FBS+). The method, then:
Using B-2 (Example 1), B-2-1 (Comparative Example 1), and DODAP (Comparative Example 2) as cationic lipids, MENDs having a composition of cationic lipid:SOPE:Chol=3:4:3 were prepared by the method described in [Experimental Example 1] (2). For the preparation, PEG2000DSG was used as PEG lipid, and MEND solutions corresponding to 0.55 mM of the lipid concentration were prepared. For cationic MEND, lipids having a composition of DOTAP (Comparative Example 3):DOPE:Chol:=3:4:3 were used, and the cationic MEND was prepared according to the method described in [Experimental Example 1] (3). The lipids of various MENDs were labeled with fluorescence according to the method described in [Experimental Example 1] (5).
HT1080 cells were plated on a 6-well plate at 2×10^5 cells/2 mL/well 24 hr before, various sample MENDs were diluted with DMEM (FBS+) to a lipid concentration of 27.5 nmol/l mL/well and transfected into the well. After 1 hr, MEND-containing DMEM was removed, and the cells were washed twice with heparin (20 units/mL, 1 mL), and further once with PBS(−) (1 mL). 0.05% Trypsin solution (500 μL) was added, and the mixture was stood in an incubator at 37° C. for 3 min. […] The suspension was passed through a 44 μm nylon mesh immediately before the measurement, and the fluorescence intensity of intracellular NBD was measured.

Consider `CC1=C(/C=C/C(C)=C/C=C/C(C)=C/C(=O)OCCCN(C)CCSSCCN(C)CCCOC(=O)/C=C(C)/C=C/C=C(C)/C=C/C2=C(C)CCCC2(C)C)C(C)(C)CCC1` [Example B-2-4], for which, in the assay with HT1080 cells [1], the “activity under endosomal acidification inhibition using BafA1” value is “inhibited”. Besides, the “inhibitory effect of GA on gene expression activity” value in the assay on HT1080 cells [2] was “higher inhibitory effect on B-2-4 than on B-2”. The decapsulation efficiency result in the assay with HT1080 cells [3] is “gradual decapsulation with the passage of time”. Besides, in the assay on HT1080 cells [4], the “gene expression activity (luciferase, RLU/2 min), time course” value was “significantly higher than that of MENDs formed from B-2-1 and DOTAP”.

In the case of `CCCCCCCCCCCCCC(=O)OCCCN(C)CCSSCCN(C)CCCOC(=O)CCCCCCCCCCCCC` [Example B-2], the “activity under endosomal acidification inhibition using BafA1” value with HT1080 cells [1] is “inhibited”. In the assay with HT1080 cells [5], the “intracellular uptake amount of MEND” value is “extremely low as compared to the MENDs using B-2-1 and DOTAP”. Besides, the “inhibitory effect of GA on gene expression activity” value in the assay on HT1080 cells [2] is listed as “higher inhibitory effect on B-2-4 than on B-2”. Further, in the assay with HT1080 cells [3], the decapsulation efficiency entry is reported as “good decapsulation from early stages”. Also, the “gene expression activity (luciferase, RLU/2 min), time course” value in the assay with HT1080 cells [4] was “equivalent to that of DOTAP”.

Turning to `CCCCCCCC/C=C\CCCCCCCC(=O)OCC(CN(C)C)OC(=O)CCCCCCC/C=C\CCCCCCCC` (stereo not shown) [DODAP, reference compound], in the assay on HT1080 cells [5], the “intracellular uptake amount of MEND” value is “extremely low as compared to the MENDs using B-2-1 and DOTAP”.
